# Laboratory results taken from US20240391923A1, “METHIONINE ADENOSYLTRANSFERASE 2A INHIBITOR FOR TREATING MTAP DELETION-TYPE CANCER” (SUZHOU GENHOUSE BIO CO., LTD., priority 2022, published 2024).
# Where two headings read alike, the source gives them in different places.
# What was measured:
# [1] = system: HCT116-MTAP-knockout (−/−) cell strain; test: Tumor cell proliferation inhibition assay (CellTiter-Glo), HCT116-MTAP-knockout (-/-); format: cell-based; settings: Homo sapiens, 120 h, 5-day treatment
# Description: (§1) After the HCT116-MTAP-knockout (−/−) cell strain, the HCT116-MTAP wild-type(+/+)-cell strain, the DOHH-2 cell strain, or the Hut-78 cell strain was treated with the test compound for 5 days, the ATP level was measured using a CellTiter-Glo kit of Promega to evaluate the inhibition of the test compound against the growth of the tumor cell strain.
# (§2) In the present application, the HCT116-MTAP-knockout (−/−) cell strain, the HCT116-MTAP wild-type (+/+)-cell strain, the DOHH-2 cell strain, or the Hut-78 cell strain was seeded into a 96-well cell culture plate at an appropriate cell density. After 24 h, the cells were treated using the test compounds diluted 1:3 fold at the highest concentration of 10 μM for 10 gradients, and a DMSO treatment group was set up separately. The cells were cultured in a 37° C./5% CO2 incubator for 5 days.
# [2] = target: MAT2A recombinant protein (Homo sapiens, UniProt P31153); test: MAT2A inhibitory activity (malachite green colorimetric enzyme assay); format: biochemical
# Sequence of MAT2A recombinant protein (P31153 whole entry): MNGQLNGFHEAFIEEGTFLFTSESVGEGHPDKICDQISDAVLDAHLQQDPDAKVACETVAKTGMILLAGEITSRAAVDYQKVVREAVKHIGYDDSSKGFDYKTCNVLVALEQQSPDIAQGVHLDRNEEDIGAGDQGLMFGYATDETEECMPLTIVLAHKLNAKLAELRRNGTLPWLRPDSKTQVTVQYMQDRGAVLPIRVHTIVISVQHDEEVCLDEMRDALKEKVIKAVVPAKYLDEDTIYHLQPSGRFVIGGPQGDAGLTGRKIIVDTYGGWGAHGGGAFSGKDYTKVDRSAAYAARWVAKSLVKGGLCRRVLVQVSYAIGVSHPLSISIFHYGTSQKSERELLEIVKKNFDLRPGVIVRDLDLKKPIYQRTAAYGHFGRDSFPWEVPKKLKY
# From the text: MAT2A catalyzes the reaction of L-methionine and ATP to generate S-adenosylmethionine (SAM), inorganic phosphonic acid, and inorganic diphosphonic acid. Malachite green reacts with inorganic phosphonic acid to generate a green product, and the enzyme activity of MAT2A can be indirectly reflected by detecting the content of the inorganic phosphonic acid in a sample.
# The test compounds were formulated using DMSO and diluted 1:3 diluted through 10 concentration points to give a final starting concentration in the reaction system of 1000 nM. The test compounds at different concentrations described above were transferred to a 384-well plate. Experimental buffer (50 mM HEPES pH 7.5, 50 mM KCl, 10 mM MgCl2, 10 mM DTT) was prepared. 2×MAT2A recombinant protein was prepared using the buffer and added to a 384-well plate. A mixed solution of 2×L-methionine and ATP was prepared using the buffer, and added to a 384-well plate. The enzymatic reaction was started, and the reaction was carried out at room temperature for 60 min. 20 μL of a colorimetric detection reagent was added to the above system, and incubated at room temperature for 15 min. The absorbance at 630 nm was measured. The inhibition rate of the compound on the enzyme activity was calculated, and the inhibition rate value and the logarithm value of the compound concentration were fitted using non-linear regression (dose response-variable slope) to give the IC50 value of the test compound.
# [3] = system: SDMA in human colon cancer cell line HCT116; test: Cell symmetric dimethylarginine (SDMA) test, In-cell Western, HCT116 (MTAP wild-type); format: cell-based; settings: Homo sapiens, HCT-116, 96 h
# From the text: MAT2A catalyzes the reaction of L-methionine and ATP to generate SAM, inorganic phosphonic acid, and inorganic diphosphonic acid. SAM is an important methyl donor, and is a substrate of arginine methyltransferase 5 (PRMT5). PRMT5 catalyzes SDMA modification of multiple proteins within a cell. The intracellular SDMA modification level was detected by ICW (In-cell Western), and the inhibition of the test compound on the enzymatic activity of intracellular MAT2A was indirectly reflected.
# In the present application, the human colon cancer cell line HCT116 and the corresponding HCT116-MTAP-knockout cell line were seeded into a 96-well cell culture plate at an appropriate cell density. After 24 h, the cells were treated using the test compounds diluted 1:4 fold at the highest concentration of 6 μM for 6 gradients, and a DMSO treatment group was set up separately. The cells were cultured in a 37° C./5% CO2 incubator for 4 days. To test the inhibitory activity of the test compounds against tumor cell SDMA, the medium was discarded, and the plate was washed 3 times with PBST. 4% paraformaldehyde was then used at room temperature for fixation for 20 min. The fixation solution was discarded, the plate was washed 3 times with PBST, and a special blocking solution was added to each well for blocking at room temperature for 2 h. The blocking solution was discarded. After the plate was washed 3 times with PBST, the plate was incubated with SDMA antibody at 4° C. overnight. The next day, the plate was washed 3 times with PBST. The secondary antibody and DRAQ5 were diluted to an appropriate concentration with the blocking solution, and incubated at room temperature for 2 h; the plate was washed 3 times with PBST, and the fluorescence signals at 700 nm and 800 nm were detected using a Li—COR Odyssey two-color near-infrared laser imager.
# The data was then processed. After the corresponding background value was subtracted from each well, statistical analysis was performed on the 800 nm/700 nm ratio for each well, a sigmoidal dose-inhibition curve was plotted using a non-linear regression model, and IC50 values were fitted and calculated. Inhibition Rate (%)=(1−SDMA dose/SDMA DMSO control)*100. SDMA dose is the value of the drug treatment group, and SDMA DMSO control is the value of the DMSO control group.
# [4] = system: SDMA in HCT116-MTAP-knockout cell line; test: Cell symmetric dimethylarginine (SDMA) test, In-cell Western, HCT116-MTAP-knockout; format: cell-based; settings: Homo sapiens, 96 h
# [5] = system: HCT116-MTAP wild-type (+/+)-cell strain; test: Tumor cell proliferation inhibition assay (CellTiter-Glo), HCT116-MTAP wild-type (+/+); format: cell-based; settings: Homo sapiens, 120 h, 5-day treatment
# Description: as §1, §2
# [6] = HCT116-MTAP-knockout (−/−) cells, IC50 score, read-out: Tumor cell 5-day relative growth inhibition (HCT116-MTAP−/−) (nM), score
# [7] = HCT116-MTAP-knockout (−/−) cells, IC50 value, read-out: Tumor cell 5-day relative growth inhibition (HCT116-MTAP−/−)
# [8] = IC50 score class, read-out: MAT2A Inhibition (score)
# [9] = IC50 score class, read-out: Cell 96 h SDMA Inhibition (HCT116-MTAP+/+) (score)
# [10] = read-out: Cell 96 h SDMA inhibition (HCT116-MTAP+/+)
# [11] = IC50 score class, read-out: Cell 96 h SDMA Inhibition (HCT116-MTAP−/−) (score)
# [12] = read-out: Cell 96 h SDMA Inhibition (HCT116-MTAP−/−)
# [13] = HCT116-MTAP wild-type (+/+) cells, IC50 score, read-out: Tumor cell 5-day relative growth inhibition (HCT116-MTAP+/+) (nM), score
# [14] = HCT116-MTAP wild-type (+/+) cells, IC50 value, read-out: Tumor cell 5-day relative growth inhibition (HCT116-MTAP+/+)
# [15] = HCT116-MTAP+/+ cells, IC50 class score, read-out: Tumor cell 5-day relative growth inhibition (HCT116-MTAP+/+) (nM), score
# [16] = HCT116-MTAP+/+ cells, read-out: Tumor cell 5-day relative growth inhibition (HCT116-MTAP+/+)
# [17] = HCT116-MTAP−/− cells, IC50 class score, read-out: Tumor cell 5-day relative growth inhibition (HCT116-MTAP−/−) (nM), score
# [18] = HCT116-MTAP−/− cells, read-out: Tumor cell 5-day relative growth inhibition (HCT116-MTAP−/−)
Compound,"IC50 [1, 6]","IC50 [1, 7]","IC50 [2, 8]",IC50 ([2]; read-out: MAT2A Inhibition),"IC50 [3, 9]","IC50 [3, 10]","IC50 [4, 11]","IC50 [4, 12]","IC50 [5, 13]","IC50 [5, 14]","IC50 [5, 15]","IC50 [5, 16]","IC50 [1, 17]","IC50 [1, 18]"
CCn1cc2c(n1)c(=O)n(-c1ccccc1)c1cc(Cl)ccc21 [Compound B2],≥ 2000 nM,2830 nM,100 to 1000 nM,105 nM,,,,,,,,,,
Cn1cc2c(n1)c(=O)n(Cc1cn[nH]c1)c1cc(Cl)ccc21 [Compound B235],,,100 to 1000 nM,668 nM,> 3000 nM,> 3000 nM,> 3000 nM,4280 nM,,,,,,
Cc1c2c(nn1C(F)F)c(=O)n(-c1cccnc1)c1nc(C(F)(F)F)ccc21 [Compound B252],< 500 nM,378 nM,< 100 nM,19.3 nM,,,200 to 1000 nM,202 nM,500 to 2000 nM,1230 nM,,,,
O=c1c2nn(C(F)F)cc2c2cc(F)c(Cl)cc2n1-c1cccc2[nH]ncc12 [Compound B260],< 500 nM,69.7 nM,< 100 nM,17 nM,,,< 200 nM,57.5 nM,,,,,,
Cn1cc2c(n1)c(=O)n(-c1cccc3[nH]ncc13)c1nc(C(F)(F)F)c(C#N)cc21 [Compound B281],,,< 100 nM,30 nM,> 3000 nM,> 10000 nM,< 200 nM,25 nM,,,,,,
Cn1cc2c(n1)c(=O)n(-c1cccc3[nH]nc(Br)c13)c1cc(Cl)ccc21 [Compound B332],,,< 100 nM,39 nM,> 3000 nM,> 10000 nM,< 200 nM,9 nM,,,,,,
Cn1cc2c(n1)c(=O)n(-c1cccnc1C(F)(F)F)c1cc(Cl)c(F)cc21 [Compound B342],< 500 nM,355 nM,,,,,,,≥ 2000 nM,> 10000 nM,,,,
Cn1cc2c(n1)c(=O)n(-c1cccnc1C1CC1)c1cc(Cl)c(C#N)cc21 [Compound B348],≥ 2000 nM,> 10000 nM,,,,,,,≥ 2000 nM,≥ 10000 nM,,,,
Cn1cnc2c(=O)n(-c3cccc4[nH]ncc34)c3cc(Cl)c(C#N)cc3c21 [Compound B375],≥ 2000 nM,> 10000 nM,,,,,,,≥ 2000 nM,> 10000 nM,,,,
Cn1cc2c(n1)c(=O)n(-c1cccc3[nH]ncc13)c1cc(C(F)(F)F)c(C#N)cc21 [Compound B391],,,< 100 nM,10 nM,> 3000 nM,> 10000 nM,< 200 nM,11 nM,,,,,,
CCOc1ccc2c3cn(C)nc3c(=O)n(-c3ccc(OC(F)F)cc3)c2n1 [Compound B400],,,,,,,,,,,≥ 2000 nM,> 10000 nM,≥ 2000 nM,> 10000 nM

# Now from value to molecule:
"IC50 [1, 6]","IC50 [1, 7]","IC50 [2, 8]",IC50 ([2]; read-out: MAT2A Inhibition),"IC50 [3, 9]","IC50 [3, 10]","IC50 [4, 11]","IC50 [4, 12]","IC50 [5, 13]","IC50 [5, 14]","IC50 [5, 15]","IC50 [5, 16]","IC50 [1, 17]","IC50 [1, 18]",Compound
,,,,,,,,,,≥ 2000 nM,> 10000 nM,≥ 2000 nM,> 10000 nM,Cn1cnc2c(=O)n(-c3ccc4ncccc4c3)c3nc(C(F)(F)F)ccc3c21 [Compound B401]
,,> 1000 nM,> 10000 nM,,,,,,,≥ 2000 nM,> 10000 nM,≥ 2000 nM,> 10000 nM,Cn1cnc2c(=O)n(-c3ccc4ccccc4n3)c3nc(C(F)(F)F)ccc3c21 [Compound B402]
,,> 1000 nM,> 10000 nM,,,,,,,≥ 2000 nM,> 10000 nM,≥ 2000 nM,> 10000 nM,Cn1cnc2c(=O)n(-c3cnc4ccccc4c3)c3nc(C(F)(F)F)ccc3c21 [Compound B403]
,,> 1000 nM,> 10000 nM,,,,,,,≥ 2000 nM,> 10000 nM,≥ 2000 nM,> 10000 nM,Cn1cnc2c(=O)n(-c3ccc4ccccc4c3)c3nc(C(F)(F)F)ccc3c21 [Compound B404]
,,> 1000 nM,> 10000 nM,,,,,,,≥ 2000 nM,> 10000 nM,≥ 2000 nM,> 10000 nM,Cn1cnc2c(=O)n(-c3ccc4ncccc4n3)c3nc(C(F)(F)F)ccc3c21 [Compound B405]
,,,,,,,,,,≥ 2000 nM,> 10000 nM,≥ 2000 nM,> 10000 nM,Cn1cnc2c(=O)n(-c3cncc4ccccc34)c3nc(C(F)(F)F)ccc3c21 [Compound B406]
,,,,,,,,,,≥ 2000 nM,> 10000 nM,≥ 2000 nM,> 10000 nM,Cn1cnc2c(=O)n(-c3cccc4ccncc34)c3nc(C(F)(F)F)ccc3c21 [Compound B407]
,,,,,,,,,,≥ 2000 nM,> 10000 nM,≥ 2000 nM,> 10000 nM,Cn1cnc2c(=O)n(-c3cccc4ncccc34)c3nc(C(F)(F)F)ccc3c21 [Compound B408]
,,,,,,,,,,≥ 2000 nM,4040 nM,500 to 2000 nM,1530 nM,O=c1c2n[nH]cc2c2ccc(C(F)(F)F)nc2n1-c1ccccc1Cl [Compound B409]
,,> 1000 nM,> 10000 nM,,,,,,,≥ 2000 nM,> 10000 nM,≥ 2000 nM,> 10000 nM,Cn1ncc2c3ccc(C(F)(F)F)nc3n(-c3ccccc3Cl)c(=O)c21 [Compound B410]
,,< 100 nM,10 nM,> 3000 nM,> 10000 nM,< 200 nM,5.2 nM,,,,,,,Cn1cc2c(n1)c(=O)n(-c1cccc3[nH]nc(F)c13)c1cc(Cl)c(F)cc21 [Compound B411]
,,< 100 nM,6.4 nM,> 3000 nM,> 10000 nM,< 200 nM,5.8 nM,,,,,,,Cn1cc2c(n1)c(=O)n(-c1cccc3[nH]nc(Cl)c13)c1cc(Cl)c(F)cc21 [Compound B412]
,,< 100 nM,7.4 nM,> 3000 nM,> 10000 nM,< 200 nM,9.1 nM,,,,,,,Cn1cc2c(n1)c(=O)n(-c1cccc3[nH]nc(Br)c13)c1cc(Cl)c(F)cc21 [Compound B413]
